SMILES strings stand for the structures.

The test system of the experiment is AMPA-kainate receptors. As to the kind of experiment: Patch-clamp (whole-cell voltage-clamp) recording of kainate-evoked currents in primary cultures of cortical neurons. The class given is cell-based. The following applies: rat cortical neurons; for type of allosteric modulation of the AMPA receptor: effect on current induced by Kainate; for Variation in the current induced by Kainate, %: compound at 10 µM, mean ± SE (n = 4-6). As to the method: The pharmacological studies were conducted using the patch-clamp technique on primary cultures of cortical neurons.
The primary neuronal cultures were obtained from 1-day-old Sprague-Dawley rats. The cells were dispersed with trypsin (0.24 mg/ml) and plated out at a density of 10^6 cells/ml on 35mm Petri dishes pretreated with poly-L-lysine (10 µg/ml). The cells were cultivated in Eagle's Basal Medium with the addition of 10% foetal calf serum, 2 mM glutamine and 100 µg/ml gentamicin, and stored in an incubator at 37°C in 5% carbon dioxide.
To prevent astroglial proliferation, cytosine arabinofuranoside was added (1-10 µM) to the cultures 24h after plating out.
The patch-clamp recordings were performed on a single cell after 7 days in culture using the voltage-clamp technique in whole-cell configuration (Hamill OP, Marty A, Neher E, Sakmann B, Sigworth FJ (1981): Improved patchclamp techniques for high-resolution current recording from cell and cell-free membrane patches. Pflugers Arch, 85-100). […] The currents were amplified with an Axopatch 1 D amplifier (Axon Instruments, Foster City, CA), filtered at 5 kHz and digitised at 10 kHz using the pClamp software (Axon Instruments, Foster City, CA).
The intracellular solutions contained: KCI 140mM, MgCl2 3mM, EGTA 5mM, HEPES 5mM, ATP-Na 2mM, and were brought to pH 7.3 with KOH. The cells were continuously perfused with an external solution containing: NaCl 145mM, KCI 5mM, CaCl2 1mM, HEPES 5mM, glucose 5mM, saccharose 20Mm, and brought to pH 7.4 with NaOH.
The compounds tested were dissolved in DMSO and diluted to the final concentration in the extracellular solution. (The DMSO in the final concentration is less than 0.1%.) The kainate (SIGMA) was dissolved in the extracellular solution. All of the substances were applied directly by gravity through a "Y-tube" perfusion system (Murase K, Ryu PD, Randic M (1989). Excitatory and inhibitory amino acids and peptide-induced responses in acutely isolated rat spinal dorsal horn neurons. Neurosci Lett 103, 56-63).
The electrophysiological data was analysed using the software pCLAMP 6.3 (Axon Instruments).
The compounds according to the invention have proven to be potent allosteric modulators of the response mediated by AMPA-kainate receptors. […] The values are expressed as the mean ± SE (n = 4-6).

Consider `CC1Nc2c(-c3ccco3)cc(Cl)cc2S(=O)(=O)N1` (stereo not drawn) [(3), 7-chloro-5-(2-furyl)-3-methyl-3,4-dihydro-2H-1,2,4-benzothiadiazine 1,1-dioxide], for which the “Variation in the current induced by Kainate, %” value (“Variation … %” below) stood at 80±16%. In addition, the “type of allosteric modulation of the AMPA receptor” value (shortened to “type”) (10 µM) is on record as “positive allosteric modulator”.
The like results for `CC1Nc2c(-c3ccsc3)cc(Cl)cc2S(=O)(=O)N1` (stereo not drawn) [(2), 7-chloro-3-methyl-5-thien-3-yl-3,4-dihydro-2H-1,2,4-benzothiadiazine 1,1-dioxide] were, in that order, 214±41% and “positive allosteric modulator”.
`O=S1(=O)NCNc2c(-c3ccco3)cc(Cl)cc21` [(5), 7-chloro-5-(2-furyl)-3,4-dihydro-2H-1,2,4-benzothiadiazine 1,1-dioxide]: the “Variation … %” value is 20±5%. The “type” value (10 µM) was “positive allosteric modulator”.
One may read the EC50 as the concentration needed to bring the measured effect to its halfway point. In the case of `CC1Nc2c(-c3ccoc3)cc(Cl)cc2S(=O)(=O)N1` (stereo not drawn) [(1), 7-chloro-5-(3-furyl)-3-methyl-3,4-dihydro-2H-1,2,4-benzothiadiazine 1,1-dioxide], the “Variation … %” value worked out at 358±80%. Moreover, under “potentiation of currents induced by Kainate, calculated from dose/response data of Figure 1”, the EC50 is 1100 nM. Moreover, for the setting “10 µM”, the “type” value was “positive allosteric modulator”. Also, the “increase of the current induced by Kainate” value (10 µM, text statement on the data of Table 1) was “around 360 times”. The “EC2X (i.e. the concentration at which the AMPA receptor currents are potentiated 2 times)” value (calculated from dose/response data of Figure 1) is listed as 500 nM.
With `CC1=Nc2c(-c3ccco3)cc(Cl)cc2S(=O)(=O)N1` [(6), 7-chloro-5-(2-furyl)-3-methyl-1,2,4-benzothiadiazine 1,1-dioxide], the “Variation … %” value is -21±9%. Also, the “type” value (10 µM) was “negative allosteric modulators”.
As for `CCC1Nc2c(-c3ccco3)cc(Cl)cc2S(=O)(=O)N1` (stereo not drawn) [(4), 7-chloro-5-(2-furyl)-3-ethyl-3,4-dihydro-2H-1,2,4-benzothiadiazine 1,1-dioxide], the “Variation … %” value was -32±12%. The “type” value (10 µM) was “negative allosteric modulators”.

The record behind these values is patent publication EP2457906A1, “Derivatives of 1,2,4-benzothiadiazine dioxide, their preparation and use as allosteric modulators of the AMPA receptor” (Universita'del Salento, priority 2010, dated 2012).
